Experimental data published in publication PMC11360128, “Rigid Macrocycle Metal Complexes as CXCR4 Chemokine Receptor Antagonists: Influence of Ring Size” (Pharmaceutics, 2024).
Where two headings read alike, the source gives them in different places.

What was measured:
CCR5 [1] = target: T1, CCR5 (Homo sapiens, UniProt P51681); assay: CCL3L1-induced intracellular calcium mobilisation in CCR5-transfected U87 cells (FLIPR); assay type: cell-based; settings: mean ± SEM, read-out: Ca^2+ Signalling Assay IC50 CCL3L1
T1 construct: endogenous in cells
Procedure: CXCR4- or CCR5-positive U87 glioblastoma/astrocytoma cells were loaded with the fluorescent calcium indicator Fluo-3 acetoxymethyl (Molecular Probes) at 4 µM in the assay buffer (Hanks’ balanced salt solution with 20 mM HEPES buffer and 0.2% bovine serum albumin, pH 7.4) for 45 min at room temperature. After thorough washing with the assay buffer, cells were pre-incubated for 10 min at 37 °C in the same buffer with the compounds of interest. The intracellular calcium mobilisation in response to CXCL12 (CXCR4 chemokine ligand) or CCL3L1 (CCR5 chemokine ligand) was then measured at 37 °C by monitoring the fluorescence as a function of time simultaneously in all the wells by using a fluorometric imaging plate reader (FLIPR; Molecular Devices, Sunnyvale, CA, USA).
The potency of the different metal complexes was investigated in a functional downstream receptor signalling assay. The inhibitory effect of the tested compounds was examined by Ca^2+ mobilisation studies with the natural ligands CXCL12 and CCL3L1 for the chemokine receptors CXCR4 and CCR5, respectively. The Ca^2+ ions released from the endoplasmic reticulum were measured over time in CXCR4- or CCR5-transfected U87 glioblastoma cells via their specific interaction with the fluorescent Ca^2+ indicator Fluo-3 [63].

HIV-1 NL4-3 (X4) = assay: HIV infection assay, Tat-regulated luciferase reporter in TZM-bl cells, CXCR4-using strain; assay type: cell-based; settings: replication of HIV-1 NL4-3 (X4) in TZM-bl cells, mean ± SEM, read-out: Anti-HIV Activity IC50 NL4-3 (X4)
Text: (§1) Buffy coat preparations from healthy donors were obtained from the Blood Bank in Leuven, Belgium. For the chemokine binding studies, peripheral blood mononuclear cells (PBMCs) activated with phytohemagglutinin (PHA; Sigma, Belgium) were used. Human T-lymphocytic SUP-T1 cells and TZM-bl cells were obtained from the American Type Culture Collection (Rockville, MD) and maintained in RPMI-1640 supplemented with 10% foetal bovine serum (FBS). Human glioblastoma U87.MG and U87.CD4 cells were kindly provided by Dr. D. Littman and used to generate cells expressing CXCR4 or CCR5 [48]. The fluorescent chemokines CXCL12^AF647 and CCL5^AF647 were purchased from Almac. […]
(§2) TZM-bl cells were seeded in transparent 96-well plates at 1 × 10^4 cells per well in DMEM (Dulbecco’s modified Eagle medium; Life Technologies, Waltham, MA, USA) with 10% FBS and 10 mM HEPES. […] After 48 h of incubation, the assay plates were analysed. […] The luminescent signal of the lysed cell suspension was analysed in white 96-well plates on a Spectra-Max L luminescence microplate reader (Molecular Devices, Sunnyvale, CA, USA) after a 10 min incubation period in the dark. Luciferase activity induced by HIV-1 Tat protein expression was measured as an assessment of the amount of HIV replication. […]

[2] = Cellular cytotoxicity, microscopic evaluation and MTS assay; assay type: cell-based, human; settings: human, PHA-stimulated PBMCs, MTS, read-out: Toxicity CC50 PMBCs
Text: (§3) Buffy coat preparations from healthy donors were obtained from the Blood Bank in Leuven, Belgium. For the chemokine binding studies, peripheral blood mononuclear cells (PBMCs) activated with phytohemagglutinin (PHA; Sigma, Belgium) were used. Human T-lymphocytic SUP-T1 cells and TZM-bl cells were obtained from the American Type Culture Collection (Rockville, MD) and maintained in RPMI-1640 supplemented with 10% foetal bovine serum (FBS). Human glioblastoma U87.MG and U87.CD4 cells were kindly provided by Dr. D. Littman and used to generate cells expressing CXCR4 or CCR5 [48]. The fluorescent chemokines CXCL12^AF647 and CCL5^AF647 were purchased from Almac. […] HIV-1 NL4-3 (CXCR4-using, X4) and HIV-1 BaL (CCR5-using, R5) were obtained through the AIDS Research and Reference Reagent Program (Division of AIDS, NIAID, NIH).
(§4) Cytotoxicity of the compounds was evaluated after 48 h of incubation at 37 °C in PHA-stimulated PBMCs (5 × 10^5 cells per well in culture medium). Each condition was tested in duplicate. Cytotoxicity was evaluated microscopically, and in addition, the cell viability was assessed using the colorimetric CellTiter 96 AQueous One Solution Cell Proliferation Assay (Promega, Fitchburg, WI, USA), which is based on the reduction of the tetrazolium salt MTS [3-(4,5-dimethylthiazol-2-yl)-5-(3-carboxymethoxyphenyl)-2-(4-sulfophenyl)-2H-tetrazolium] to formazan by metabolically active cells. Absorbance at 490 nm was measured with the Versa-Max ELISA microplate reader (Molecular Devices, Sunnyvale, CA, USA). The cytotoxic concentration 50 (CC50) of each compound was calculated based on the absorbance of negative (i.e., cells without compound) and positive (i.e., only culture medium) control samples.
(§5) The cellular cytotoxicity of all compounds was evaluated in PHA-stimulated PBMCs.

PHA-stimulated PBMCs = assay: as above; assay type: cell-based, human; settings: 48 h, MTS, read-out: Toxicity CC50 PMBCs
Text: as §3, §4, §5

CCR5 [3] = target: T1, CCR5; assay: CCL5^AF647 chemokine binding inhibition assay in PBMCs; settings: AF647-labelled CCL5 in PBMCs; mean ± SEM; read-out: Competition Binding Assay IC50 CCL5
Procedure: Human PBMCs were washed once with assay buffer (Hanks’ balanced salt solution with 20 mM HEPES buffer and 0.2% bovine serum albumin, pH 7.4) and then incubated for 15 min at room temperature with the sample diluted in assay buffer at the indicated concentrations. Subsequently, CXCL12^AF647 (25 ng/mL) or CCL5^AF647 (50 ng/mL) was added to the compound-incubated cells. The cells were incubated for 30 min at room temperature. Thereafter, the cells were washed twice in assay buffer, fixed in 1% paraformaldehyde in PBS, and analysed on the FL4 channel of a FACSCalibur flow cytometer equipped with a 635 nm red diode laser (Becton Dickinson, San Jose, CA, USA). The percentage of inhibition of CXCL12^AF647 or CCL5^AF647 binding was calculated according to the formula: [1 − ((MFI − MFINC)/(MFIPC − MFINC))] × 100, where MFI is the mean fluorescence intensity of the cells incubated with CXCL12^AF647 or CCL5^AF647 in the presence of the inhibitor, MFINC is the mean fluorescence intensity measured in the negative control (i.e., autofluorescence of unlabelled cells), and MFIPC is the mean fluorescence intensity of the positive control (i.e., cells exposed to CXCL12^AF647 or CCL5^AF647 alone).
Binding affinity and selectivity towards CXCR4 were further evaluated through competition binding assays using natural chemokine ligands, tagged with Alexa Fluor 647, as previously reported. […]

HIV-1 BaL (R5) = assay: microbe, parasite or virus in culture; settings: read-out: Anti-HIV Activity IC50 BaL (R5)
Text: as §1, §2

T1 sequence (P51681 whole entry): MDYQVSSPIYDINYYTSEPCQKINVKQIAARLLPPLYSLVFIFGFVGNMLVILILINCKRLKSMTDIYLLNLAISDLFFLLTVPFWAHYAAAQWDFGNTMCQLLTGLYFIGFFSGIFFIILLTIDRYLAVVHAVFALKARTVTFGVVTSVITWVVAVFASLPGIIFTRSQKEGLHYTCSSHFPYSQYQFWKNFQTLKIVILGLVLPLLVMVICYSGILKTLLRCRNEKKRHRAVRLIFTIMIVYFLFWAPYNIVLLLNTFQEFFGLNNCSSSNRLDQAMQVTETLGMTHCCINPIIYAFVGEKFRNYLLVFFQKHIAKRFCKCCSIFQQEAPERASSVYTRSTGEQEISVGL

For `c1cc(CN2CCCNCCNCCCNCC2)ccc1CN1CCCNCCNCCCNCC1` [AMD3100, reference compound], the IC50 (CCR5 [1]) was greater than 20 µM, the IC50 (HIV-1 NL4-3 (X4); Human immunodeficiency virus 1, NL43) was 0.00042 ± 0.00014 µM and the CC50 at 48 h [2] was no less than 100 µM. For the same compound, the CC50 (PHA-stimulated PBMCs) was greater than 100 µM, the IC50 (CCR5 [3]) was greater than 1 µM and the IC50 (HIV-1 BaL (R5); Human immunodeficiency virus 1, BAL, TZM-bl) was greater than 20 µM.
`[Cu+2].[Cu+2].c1cc(CN2CCCNCCNCCCNCC2)ccc1CN1CCCNCCNCCCNCC1` [Cu2L^1] showed a CC50 (PHA-stimulated PBMCs) of no less than 100 µM.
Maraviroc [reference compound] showed an IC50 (HIV-1 NL4-3 (X4)) greater than 20 µM and an IC50 (HIV-1 BaL (R5); replication of HIV-1 BaL (R5) in TZM-bl cells, mean ± SEM) of 0.0029 ± 0.0012 µM.
